Test results: PubChem BioAssay AID179 (DTP/NCI, 2004)
Where “and” joins values, the source holds several entries; their conditions need not be identical. Equal entries are not always repeated. Calls of active or inactive are those of the source.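 Rule for the calls: active = compounds giving half or more protection of infected cells from virus-caused growth loss, again on retest; inactive = the rest.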

Test system: CEM cells HIV-1 protection, formazan growth assay
Experiment: NCI AIDS Antiviral Assay
Details: for IC50: measured here: growth of uninfected CEM cells
Outline: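 Steps: treat uninfected and HIV-1-infected human CEM cells at five drug levels; quantify growth by soluble formazan; retest any compound reaching 50% protection; classify actives from the retest.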

| Structure (SMILES) | EC50 | IC50 | outcome |
| --- | --- | --- | --- |
| O=C(Nc1ccc(/C=C/c2ccc(NC(=O)c3ccc(O)cc3O)cc2S(=O)(=O)O)c(S(=O)(=O)O)c1)c1ccc(O)cc1O | > 151 µM | 126 µM |  |
| CCC(C(=O)OC)C1CCN(C)C(=O)C12CO2 (centres undefined) | > 1020 µM | > 1020 µM |  |
| CCOC(=O)C1(Sc2ccccc2)CCC2c3[nH]c4ccccc4c3CCN2C1=O (centres undefined) | > 12.3 µM | > 12.3 µM |  |
| c1ccc2c(c1)sc1scc[n+]12 | > 617 µM | 12.9 µM |  |
| CC(=O)C1(O)Cc2c(O)c3c(c(O)c2C(OC2CC(N)C(O)C(C)O2)C1)C(=O)c1ccccc1C3=O (centres undefined) | > 339 µM | 0.107 µM |  |
| COc1c(OC)c(OC)c2c(c1OC)OC(c1ccc(O)cc1)CC2=O (centres undefined) | > 200 µM | 28.8 µM |  |
| Nc1ccnc(N)c1N=O | > 200 µM | 27.5 µM |  |
| N#C/C(=C\n1c(=S)[nH]c2ccccc21)c1nc2ccccc2s1 | > 200 µM | > 200 µM |  |
| O=C(c1ccccc1)N1CCN(C(=S)NC2CCCCC2)C1=S | > 200 µM | 12 µM |  |
| CC1CC2OC(=N)C1(C#N)C2(C#N)C#N (centres undefined) | > 200 µM | 10.5 µM |  |
| CC1=C(C)C1[N+](=O)[O-] | > 200 µM | > 200 µM |  |
| O=C(O)c1cc2c(cc1CC(Cc1ccc3c(c1)CCC3)C(=O)O)CCC2 (centres undefined) | > 200 µM | 105 µM |  |
| CCC1(O)CC(OC2CC(N(C)C)C(OC3CC4OC5CC(=O)C(C)OC5OC4C(C)O3)C(C)O2)c2c(cc3c(c2O)C(=O)c2c(O)ccc(O)c2C3=O)C1C(=O)OC (centres undefined) | > 2.4 µM | 0.0155 µM and 0.012 µM |  |
| CC1C(=O)N(c2ccccc2)NC12CCCc1ccccc12 (centres undefined) | > 200 µM | 91.2 µM |  |
| O/N=C1/C(=C/c2ccc(OCc3ccccc3)cc2)CCCC1C(NO)c1ccc(OCc2ccccc2)cc1 (centres undefined) | > 7.08 µM | > 7.08 µM |  |
| COc1ccc(N(C(=O)NCCO)c2ccccc2)cc1 | > 200 µM | > 200 µM |  |
| COC(=O)c1nc2[nH]n(-c3ccccc3)c(=O)c2c2c1CCCCCCCCCC2 | > 123 µM | 115 µM |  |
| CCCN1CN(C(C(=O)N[C@@H]2C(=O)N3C(C(=O)O)=C(C)CSC23)c2ccccc2)CSC1=S (some centres undefined) | > 355 µM | 204 µM |  |
| Cc1ccc(S(=O)(=O)NC(=O)NC23CC4CC(CC(F)(C4)C2)C3)cc1 | > 676 µM | 339 µM |  |
| COP12(OC)NC(=O)OC1(C(F)(F)F)c1ccccc1O2 (centres undefined) | > 776 µM | 537 µM |  |
| C1Cc2nnnn2C1 | > 2290 µM | > 2290 µM |  |

| Structure (SMILES) | EC50 | IC50 | outcome |
| --- | --- | --- | --- |
| CCN(CC)CCN1CC(=O)N2Cc3ccccc3CN2C(=O)C1 | > 200 µM | > 200 µM |  |
| COc1ccc(C2=NNc3n[nH]c(=S)n3N2)cc1OC | > 64.6 µM | > 64.6 µM |  |
| CC(=O)N(C)c1ccc(N=CN(C)C)cc1 | > 200 µM | > 200 µM |  |
| CCOC(=O)C1=NN(c2ccccc2)C(=O)/C1=C\N1C(=O)CC(=O)NC1=S | > 200 µM | 195 µM |  |
| C=C([C@@]1(O)C[C@H]2[C@H](CCC2(OC)OC)[C@@H]2c3ccccc3O[C@@H]21)[Si](C)(C)C |  |  | inactive |
| COC(=O)C(N)CSc1ccc([N+](=O)[O-])cc1[N+](=O)[O-] (centres undefined) | > 741 µM | 115 µM |  |
| CCOC1C2c3cc(OC)c(OC)cc3CC(C#N)(c3ccccc32)N1C(=O)c1ccccc1 (centres undefined) |  |  | inactive |
| CC(=O)OCC1OC(n2c(C)c(C(C)=O)c(-c3ccc(Cl)cc3)c(C#N)c2=S)C(OC(C)=O)C(OC(C)=O)C1OC(C)=O (centres undefined) | > 200 µM | 148 µM |  |
| CCCCc1ccc(Nc2nc3c(ncn3COCCBr)c(=O)[nH]2)cc1 | > 200 µM | > 200 µM |  |
| CC(C)(CO)NC(=O)c1cccc(C(=O)NC(C)(C)CO)c1Br | > 200 µM | > 200 µM |  |
| Clc1ccc(CN2COc3c(ccc4cccnc34)C2)cc1Cl | > 200 µM | 1.29 µM |  |
| COC1C2c3cc4c(cc3CC(C#N)(c3ccccc32)N1C(=O)c1ccccc1)OCO4 (centres undefined) |  |  | inactive |
| CCCCCCCCCCCCCCCCN[Si](NCCCCCCCCCCCCCCCC)(NCCCCCCCCCCCCCCCC)NCCCCCCCCCCCCCCCC | > 240 µM | 138 µM |  |
| Nc1nc2ccc(CO)nc2c(=O)[nH]1 | > 200 µM | > 200 µM |  |
| c1ccc2c(c1)n1c(N3CCCC3)[n+]3ccccc3c1c1c3cccc[n+]3c(N3CCCC3)n21 | 57.5 µM | > 100 µM |  |
| Nc1ncnc2c1ncn2C1CC(OC2CCCCO2)C(CO)O1 (centres undefined) | > 200 µM | > 200 µM |  |
| CC(C)=CCOc1cc(NC(=S)c2ccsc2C)ccc1Cl | 0.0417 µM | 15.8 µM |  |
| CN(C)CCNC(=O)C(C)(C)Oc1ccc(C(=O)c2ccc(Cl)cc2)cc1Cl | > 200 µM | 9.55 µM |  |
| O=C(c1cccs1)N(C(=S)OCc1ccccn1)c1ccccc1 | > 200 µM | 79.4 µM |  |
| O=C(CC(O)(C(F)(F)F)C(F)(F)F)C(CCCl)C(O)(C(F)(F)F)C(F)(F)F (centres undefined) | > 200 µM | 33.1 µM |  |
| O=C(O)CN(CCN(CC(=O)O)CC(=O)O)CCN(CC(=O)O)CC(=O)O | > 200 µM | > 200 µM |  |

| Structure (SMILES) | EC50 | IC50 | outcome |
| --- | --- | --- | --- |
| O=C(Cn1nc(Br)c(Br)c1Br)c1ccccc1 | > 200 µM | 19.5 µM |  |
| C[C@@]12C[C@@H](c3ccccc3O1)N1CCCCSC1=N2 | > 200 µM | > 200 µM |  |
| COC(=O)NNc1c([N+](=O)[O-])cnn(-c2ccccc2)c1=O | > 58.9 µM | 0.295 µM |  |
| C=C1C(OC(=O)C(O)C(c2ccccc2)N(C)C)CC(OC(C)=O)[C@]2(C)C1C[C@@H]1CC(=O)C(C)=C([C@@H](OC(C)=O)C2OC(C)=O)C1(C)C (some centres undefined) | > 93.3 µM | > 93.3 µM |  |
| C=CC(C)(C)c1c(OC)oc2ccc(OC)c(C)c2c1=O | > 200 µM | 38.9 µM |  |
| COc1nc2c(c(=O)n1C)NC(C(O)C(O)CO)C=N2 (centres undefined) | 182 µM and 174 µM | > 200 µM |  |
| Cc1cccc(-c2nnc3s/c(=C\c4ccc(N(C)C)cc4)c(=O)n23)c1 | > 30.9 µM | > 30.9 µM |  |
| Cc1cn(C2CC(N(O)C3C4CC5CC(C4)CC3C5)C(CO)O2)c(=O)[nH]c1=O (centres undefined) | > 200 µM | 120 µM |  |
| O=C1CC2CCCC(C1)S2=O (centres undefined) | > 1450 µM | > 1450 µM |  |
| O=S(=O)(NCCSSCCNS(=O)(=O)c1ccc(F)cc1)c1ccc(F)cc1 | > 200 µM | 8.91 µM |  |
| CC(C)CCCC(C)[C@H]1CCC2C3CCC4C[C@@H](CCC=C(c5cc(Cl)c(OCc6ccc([N+](=O)[O-])cc6)c(C(=O)O)c5)c5cc(Cl)c(OCc6ccc([N+](=O)[O-])cc6)c(C(=O)O)c5)CC[C@]4(C)C3CC[C@@]21C (some centres undefined) | 115 µM | > 200 µM |  |
| CC(C)(C)OC(=O)N(CC1OC(n2cnc3c(N)ncnc32)C2OC(C)(C)OC12)OC(=O)C(C)(C)C (centres undefined) | > 200 µM | > 200 µM |  |
| OC(OCC(COC(O)C(Br)Br)(COC(O)C(Br)Br)COC(O)C(Br)Br)C(Br)Br (centres undefined) | > 100 µM | > 100 µM |  |
| CCC(=O)c1cc(C(=O)C(=S)SC)cc(C(=O)C(=S)SC)c1 | 20 µM | 30.9 µM |  |
| CCOC(=O)/C(=C\c1ccc(Br)cc1)P(=O)(OCC)OCC | > 331 µM | 6.76 µM |  |
| CCN=C(N)CSS(=O)(=O)O | > 200 µM | > 200 µM |  |
| O=[N+]([O-])c1ccc2cnn(CSP(=S)(c3ccccc3)c3ccccc3)c2c1 | > 200 µM | 3.02 µM |  |
| COc1cccc(C2c3cc4c(cc3OC(NNc3ccccc3)C2C)OCO4)c1O (centres undefined) | > 200 µM | 11.2 µM |  |
| CC(C)N(C(=O)C12C3C4C1C1C2C3C41I)C(C)C (centres undefined) | > 191 µM | > 191 µM |  |
